Reference: paper PMC6166781 (Nature structural & molecular biology, 2017)

How the values were obtained:
α5TMD [1] = target: T1, α5TMD (Homo sapiens, UniProt P28472+P31644, DEL351-357/DEL363-425/E358R/G348Q/K256N/R347S/W349P); test: Whole-cell patch-clamp of α5TMD in transfected HEK-293T cells; format: cell-based
T1 sequence (P28472+P31644 with tags, fused parts or gaps P31644:K256N/P31644:R347S/P31644:G348Q/P31644:W349P/P31644:DEL351-357/P31644:E358R/P31644:DEL363-425): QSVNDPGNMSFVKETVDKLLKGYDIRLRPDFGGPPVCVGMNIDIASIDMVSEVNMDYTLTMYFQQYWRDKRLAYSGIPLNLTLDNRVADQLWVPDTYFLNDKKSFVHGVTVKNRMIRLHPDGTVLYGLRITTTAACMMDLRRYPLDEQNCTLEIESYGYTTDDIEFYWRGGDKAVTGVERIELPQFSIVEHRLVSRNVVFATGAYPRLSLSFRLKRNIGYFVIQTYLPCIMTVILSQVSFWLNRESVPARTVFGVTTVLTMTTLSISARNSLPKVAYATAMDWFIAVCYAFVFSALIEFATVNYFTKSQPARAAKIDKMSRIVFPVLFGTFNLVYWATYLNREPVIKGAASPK

[2] = target: T2, α5TMD T287K (chimeric GABAAR, β3 subunit ECD fused to α5 subunit TMD) (Homo sapiens, UniProt P28472, A271S/A273P/A277V/D270E/DELINS289-473LSISARNSLPKVAYAKAMDWFIAVCYAFVFSALIEFATVNYFTKSQPARAAKIDKMSRIVFPVLFGTFNLVYWATYLNREPVIKGAASPK/I247V/I257T/I267L/I280V/L248I/L256M/L278F/M252L/S254C/S272V/T258V/V276T/W262Q/Y269R); format: cell-based; conditions: EC50 of potentiation of histamine EC10-15 responses, Fig. 1e; n = 6
T2 sequence (P28472 with tags, fused parts or gaps I247V/L248I/M252L/S254C/L256M/I257T/T258V/W262Q/I267L/Y269R/D270E/A271S/S272V/A273P/V276T/A277V/L278F/I280V): T1 sequence (P28472+P31644 with tags, fused parts or gaps P31644:K256N/P31644:R347S/P31644:G348Q/P31644:W349P/P31644:DEL351-357/P31644:E358R/P31644:DEL363-425) with T279K

[3] = target: T3, α5TMD T287K (chimeric GABAAR, β3 subunit ECD fused to α5 subunit TMD) (Homo sapiens, UniProt P28472, A271S/A273P/A277V/D270E/DELINS289-473[…]/I247V/I257T/I267L/I280V/L248I/L256M/L278F/M252L/S254C/S272V/T258V/V276T/W262Q/Y269R); format: cell-based; conditions: T287K background; n = 6
T3 sequence (P28472 with tags, fused parts or gaps I247V/L248I/M252L/S254C/L256M/I257T/T258V/W262Q/I267L/Y269R/D270E/A271S/S272V/A273P/V276T/A277V/L278F/I280V): T1 sequence (P28472+P31644 with tags, fused parts or gaps P31644:K256N/P31644:R347S/P31644:G348Q/P31644:W349P/P31644:DEL351-357/P31644:E358R/P31644:DEL363-425) with T279K

α1β3F301Aγ2 GABAAR = α1β3F301Aγ2 GABAAR (Homo sapiens, UniProt P14867+P28472, F326A); format: cell-based
α5TMD T287K Q245L = target: T4, α5TMD T287K Q245L (Homo sapiens, UniProt P28472, A271S/A273P/A277V/D270E/DELINS289-473[…]/I247V/I257T/I267L/I280V/L248I/L256M/L278F/M252L/S254C/S272V/T258V/V276T/W262L/Y269R); format: cell-based; conditions: leucine substitution of M1 Gln245
T4 sequence (P28472 with tags, fused parts or gaps I247V/L248I/M252L/S254C/L256M/I257T/T258V/W262L/I267L/Y269R/D270E/A271S/S272V/A273P/V276T/A277V/L278F/I280V): T1 sequence (P28472+P31644 with tags, fused parts or gaps P31644:K256N/P31644:R347S/P31644:G348Q/P31644:W349P/P31644:DEL351-357/P31644:E358R/P31644:DEL363-425) with Q237L, T279K

α5TMD T287K T309A = target: T5, α5TMD T287K T309A (Homo sapiens, UniProt P28472, A271S/A273P/A277V/D270E/DELINS289-473LSISARNSLPKVAYAKAMDWFIAVCYAFVFSALIEFAAVNYFTKSQPARAAKIDKMSRIVFPVLFGTFNLVYWATYLNREPVIKGAASPK/I247V/I257T/I267L/I280V/L248I/L256M/L278F/M252L/S254C/S272V/T258V/V276T/W262Q/Y269R); format: cell-based
T5 sequence (P28472 with tags, fused parts or gaps I247V/L248I/M252L/S254C/L256M/I257T/T258V/W262Q/I267L/Y269R/D270E/A271S/S272V/A273P/V276T/A277V/L278F/I280V): T1 sequence (P28472+P31644 with tags, fused parts or gaps P31644:K256N/P31644:R347S/P31644:G348Q/P31644:W349P/P31644:DEL351-357/P31644:E358R/P31644:DEL363-425) with T279K, T301A

α1β3γ2 GABAAR = α1β3γ2 GABAAR (Homo sapiens, UniProt P14867+P28472); format: cell-based
α5TMD Q245L = target: T6, α5TMD Q245L (Homo sapiens, UniProt P28472, A271S/A273P/A277V/D270E/DELINS289-473LSISARNSLPKVAYATAMDWFIAVCYAFVFSALIEFATVNYFTKSQPARAAKIDKMSRIVFPVLFGTFNLVYWATYLNREPVIKGAASPK/I247V/I257T/I267L/I280V/L248I/L256M/L278F/M252L/S254C/S272V/T258V/V276T/W262L/Y269R); test: Thermostability binding experiment
T6 sequence (P28472 with tags, fused parts or gaps I247V/L248I/M252L/S254C/L256M/I257T/T258V/W262L/I267L/Y269R/D270E/A271S/S272V/A273P/V276T/A277V/L278F/I280V): T1 sequence (P28472+P31644 with tags, fused parts or gaps P31644:K256N/P31644:R347S/P31644:G348Q/P31644:W349P/P31644:DEL351-357/P31644:E358R/P31644:DEL363-425) with Q237L

α1β3L297Aγ2 GABAAR = α1β3L297Aγ2 GABAAR (Homo sapiens, UniProt P14867+P28472, L322A); format: cell-based; conditions: for loss of sensitivity to potentiation versus wild type: L297A vs WT
α5TMD T287K W249L = target: T7, α5TMD T287K W249L (Homo sapiens, UniProt P28472, A271S/A273P/A277V/D270E/DELINS289-473LSISARNSLPKVAYAKAMDWFIAVCYAFVFSALIEFATVNYFTKSQPARAAKIDKMSRIVFPVLFGTFNLVYWATYLNREPVIKGAASPK/I247V/I257T/I267L/I280V/L248I/L256M/L278F/M252L/S254C/S272V/T258V/V276T/W262Q/W266L/Y269R); format: cell-based
T7 sequence (P28472 with tags, fused parts or gaps I247V/L248I/M252L/S254C/L256M/I257T/T258V/W262Q/W266L/I267L/Y269R/D270E/A271S/S272V/A273P/V276T/A277V/L278F/I280V): T1 sequence (P28472+P31644 with tags, fused parts or gaps P31644:K256N/P31644:R347S/P31644:G348Q/P31644:W349P/P31644:DEL351-357/P31644:E358R/P31644:DEL363-425) with W241L, T279K

α5TMD [4] = target: T1, α5TMD; test: Thermostability binding experiment
α5TMD Q245W = target: T8, α5TMD Q245W (Homo sapiens, UniProt P28472, A271S/A273P/A277V/D270E/DELINS289-473LSISARNSLPKVAYATAMDWFIAVCYAFVFSALIEFATVNYFTKSQPARAAKIDKMSRIVFPVLFGTFNLVYWATYLNREPVIKGAASPK/I247V/I257T/I267L/I280V/L248I/L256M/L278F/M252L/S254C/S272V/T258V/V276T/Y269R); test: Thermostability binding experiment
T8 sequence (P28472 with tags, fused parts or gaps I247V/L248I/M252L/S254C/L256M/I257T/T258V/I267L/Y269R/D270E/A271S/S272V/A273P/V276T/A277V/L278F/I280V): T1 sequence (P28472+P31644 with tags, fused parts or gaps P31644:K256N/P31644:R347S/P31644:G348Q/P31644:W349P/P31644:DEL351-357/P31644:E358R/P31644:DEL363-425) with Q237W

GABAAR heteromers = conditions: cited from earlier work

## NCCc1c[nH]cn1 [histamine]
α5TMD [1]; Fig. 1a
  agonist effect on receptor current: activated and then desensitised

## CC(=O)[C@H]1CC[C@H]2[C@@H]3CC[C@@H]4C[C@H](O)CC[C@]4(C)[C@H]3CC[C@]12C [pregnanolone]
[2]
  EC50: 1300 ± 100 nM
[3]
  potentiation of submaximal (EC10-15) histamine doses: 325 ± 104%
α1β3F301Aγ2 GABAAR
  EC50: 280 ± 40 nM
α5TMD T287K Q245L
  potentiation of histamine EC10-15 responses: ablated
α5TMD T287K T309A
  EC50: 2200 ± 300 nM
α1β3γ2 GABAAR
  EC50: 240 ± 20 nM
α5TMD Q245L
  EC50: > 30000 nM
α1β3L297Aγ2 GABAAR
  EC50: 2500 ± 200 nM
  loss of sensitivity to potentiation versus wild type: 10 fold
α5TMD T287K W249L
  EC50: > 10000 nM
α5TMD [4]
  EC50: 5500 ± 300 nM
α5TMD Q245W
  EC50: > 30000 nM

## picrotoxin
α5TMD [1]; Fig. 1b
  effect on spontaneous inward leak current: blocks a spontaneous inward leak current

## CC(=O)[C@H]1CC[C@H]2[C@@H]3CC[C@H]4C[C@H](O)CC[C@]4(C)[C@H]3CC[C@]12C [allopregnanolone]
α1β3F301Aγ2 GABAAR
  EC50: 260 ± 60 nM
α1β3γ2 GABAAR
  EC50: 280 ± 40 nM
α1β3L297Aγ2 GABAAR
  EC50: 1600 ± 200 nM
  loss of sensitivity to potentiation versus wild type: 5 fold

## CC(=O)[C@H]1CC[C@H]2[C@@H]3CC[C@@H]4C[C@@H](O)CC[C@]4(C)[C@H]3CC[C@]12C [epipregnanolone]
GABAAR heteromers
  potentiation of GABAAR heteromers (qualitative): weak potentiator
